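The compound was tested at five concentrations on cells cultured in 96-well plates, with a 48-hour exposure period. Here, GI50 denotes the concentration required for 50% inhibition of growth. The concentration for full growth arrest is given as TGI.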
Legend:
Test in all cases: NCI anticancer screen, dose series, 48 h
[1] = test system: KM12 colon
[2] = test system: NCI-H522 lung
[3] = test system: SF-295 CNS
[4] = test system: OVCAR-5 ovarian
[5] = test system: MOLT-4 leukemia
[6] = test system: HT29 colon
[7] = test system: SF-539 CNS
[8] = test system: K-562 leukemia
[9] = test system: SNB-19 CNS
[10] = test system: M14 melanoma
[11] = test system: NCI/ADR-RES ovarian
[12] = test system: LOX IMVI melanoma

Row | Compound | TGI [1] [µM] | TGI [2] [µM] | TGI [3] [µM] | TGI [4] [µM] | TGI [5] [µM] | TGI [6] [µM] | TGI [7] [µM] | TGI [8] [µM] | TGI [9] [µM] | TGI [10] [µM] | TGI [11] [µM] | TGI [12] [µM] | GI50 [1] [µM] | GI50 [5] [µM] | GI50 [6] [µM] | GI50 [8] [µM] | GI50 [11] [µM] | GI50 [3] [µM] | GI50 [10] [µM]
1 | S=c1[nH]n2c(COc3ccc(Cl)cc3)nnc2s1 | > 100 | > 100 | > 100 | > 100 | > 100 | > 100 | > 100 | > 100 | > 100 | > 100 | > 100 | – | – | – | – | – | – | – | –
2 | CSCC(CO)NC(=O)/C=C/c1c(C)[nH]c(=O)[nH]c1=O (configuration not stated) | > 875 | 499 | > 875 | > 875 | > 875 | > 875 | > 875 | > 875 | > 875 | – | > 875 | > 875 | – | – | – | – | – | – | –
3 | c1ccc2c(c1)SCCc1cn[nH]c1-2 | > 100 | > 100 | > 100 | > 100 | > 100 | > 100 | > 100 | > 100 | > 100 | – | > 100 | > 100 | – | – | – | – | – | – | –
4 | O=C(Sc1n[nH]c(=O)[nH]c1=O)c1cccc2nc3ccccc3nc12 | > 100 | – | > 100 | > 100 | > 100 | 61.9 | > 100 | > 100 | > 100 | > 100 | > 100 | > 100 | – | – | – | – | – | – | –
5 | Nc1ccc(Cn2ccc3c4c(N)nc(N)nc4ccc32)cc1 | 12.2 | 3.72 | 2.15 | 19.4 | > 51.7 | 2.18 | 4.15 | 2.44 | 17.6 | 6.45 | > 100 | 1.21 | – | – | – | – | – | – | –
6 | CC(=O)OC1CC(OC2C(O)CC(OC3C(O)CC(OC4CCC5(C)C(CCC6C5CCC5(C)C(C7=CC(=O)OC7)CCC65O)C4)OC3C)OC2C)OC(C)C1OC1OC(CO)C(O)C(O)C1O (configuration not stated) | 0.31 | 0.0291 | 0.142 | 0.116 | > 100 | 0.171 | 0.0352 | > 100 | 0.348 | 0.188 | 0.0581 | 0.0685 | – | – | – | – | – | – | –
7 | O=S(O)CCCSSSCCCS(=O)O | > 100 | > 100 | – | > 100 | > 100 | > 100 | > 100 | > 100 | > 100 | > 100 | – | > 100 | – | – | – | – | – | – | –
8 | Cc1cccc2c1Sc1ccccc1C2NC(=O)CN(C)C (configuration not stated) | – | – | – | > 100 | > 100 | > 100 | > 100 | > 100 | > 100 | > 100 | – | > 100 | – | – | – | – | – | – | –
9 | COCCNCc1ccc(-c2cc3nccc(Oc4ccc(NC(=O)C5(C(=O)Nc6ccc(F)cc6)CC5)cc4F)c3s2)nc1 | 2.95 | – | – | – | 4.26 | 2.89 | – | 1.83 | – | – | 4.25 | – | 0.0411 | 1.46 | 0.912 | 0.252 | 1.74 | – | –
10 | CN(c1ccccc1)c1nc(=[N+]2CCCC2)ss1 | > 100 | – | – | – | > 100 | – | – | > 100 | > 100 | > 100 | – | – | – | – | – | – | – | – | –
11 | CO/C=C1\OC(=O)C=C1OC | > 100 | > 100 | > 100 | > 100 | > 100 | > 100 | > 100 | > 100 | > 100 | – | > 100 | > 100 | – | – | – | – | – | – | –
12 | NNC(=O)c1cc([N+](=O)[O-])ccc1NC(=O)C12CC3CC(CC(C3)C1)C2 | > 100 | 15.1 | 63 | > 100 | > 100 | > 100 | 50.1 | > 100 | 21.4 | > 100 | 49.2 | 20.1 | – | – | – | – | – | – | –
13 | Cc1ccc(Nc2nc(=O)c3c([nH]c4ccccc43)s2)cc1 | 16.2 | 32.4 | 24.3 | – | > 100 | 23.2 | 31.6 | > 100 | > 100 | 18.1 | 29.9 | 27.1 | – | – | – | – | – | – | –
14 | CN(C)c1cccc(OC(=O)NCCCl)c1 | > 100 | > 100 | > 100 | > 100 | > 100 | > 100 | > 100 | > 100 | > 100 | – | > 100 | > 100 | – | – | – | – | – | – | –
15 | O=C1C(c2c(O)[nH]c3ccc(Cl)cc23)=Nc2ccccc21 | > 100 | > 100 | > 78.8 | > 28.1 | > 100 | > 100 | 17.9 | > 100 | > 81.4 | > 100 | > 100 | > 79.7 | – | – | – | – | – | – | –
16 | c1csc(-c2ccc(CNc3c4ccccc4nc4ccccc34)cc2)c1 | – | – | 2.67 | – | 3.74 | – | – | – | – | 3.4 | – | – | – | 1.32 | – | – | – | 1.31 | 1.75
17 | c1ccc2c(c1)SP1Sc3ccccc3P21 (configuration not stated) | > 100 | > 100 | > 100 | > 100 | > 100 | > 100 | > 100 | > 100 | > 31.6 | – | > 100 | > 100 | – | – | – | – | – | – | –
18 | CC1(C)N=C(c2ccccc2)SC12S[C@@H]1CCCC[C@H]1S2 | > 100 | > 100 | > 100 | > 100 | > 100 | > 100 | > 100 | > 100 | 32.1 | > 100 | > 100 | > 100 | – | – | – | – | – | – | –
